Data taken from patent publication US20260183274A1, “PDK1 REGULATORY COMPOUND AND COMPOSITION CONTAINING THE SAME” (PROVIBIO CO., LTD., priority 2024, published 2026).
pKd: −log10 of the molar value.

How the values were obtained:
[1] = system: C57BL/6 mice with skin grafts; assay: Skin graft animal model (BALB/c donor, C57BL/6 recipient); assay type: in vivo, mouse; conditions: 0.15 mg/kg twice daily
Method: To evaluate the immune-suppressive effects of the compounds according to the present invention, a skin graft animal model was established, and the efficacy of the compounds was analyzed in the model.
First, female BALB/c mice aged 7 weeks and weighing approximately 20 g were used as donor animals, and female C57BL/6 mice of the same age and weight were used as recipient animals. All experimental animals were supplied by HanabioTech Co., Ltd.
Prior to the experiment, the animals were acclimatized in SPF-certified facilities for one week and then used in the experiment. The housing conditions were maintained at a temperature of 22±2° C., relative humidity of 55+10%, and a 12-hour light-dark cycle.
To establish the skin graft model, a anesthetic solution consisting of ketamine, […], and PBS in a volume ratio of 1:1:3 was administered intraperitoneally to C57BL/6 mice to induce anesthesia.
The hair on the dorsal side of the anesthetized mice was removed and disinfected, followed by excision of the full-thickness skin using an 8 mm punch. Subsequently, skin of the same size was harvested from donor mice (BALB/c) and transplanted. […]
Subsequently, the proportions of CD3- and B220-positive cells were analyzed using a flow cytometer.

[2] = target: T1, full-length PDK1 (PDK1-FL) (Homo sapiens, UniProt O15530); assay: Microscale Thermophoresis (MST) binding affinity, full-length PDK1
T1 construct: the full-length (PDK1-FL) protein of human-derived PDK1; inferred from Ni-NTA purification; made in house; host or cells: Sf9 insect cells, baculovirus expression system
T1 sequence (O15530 whole entry): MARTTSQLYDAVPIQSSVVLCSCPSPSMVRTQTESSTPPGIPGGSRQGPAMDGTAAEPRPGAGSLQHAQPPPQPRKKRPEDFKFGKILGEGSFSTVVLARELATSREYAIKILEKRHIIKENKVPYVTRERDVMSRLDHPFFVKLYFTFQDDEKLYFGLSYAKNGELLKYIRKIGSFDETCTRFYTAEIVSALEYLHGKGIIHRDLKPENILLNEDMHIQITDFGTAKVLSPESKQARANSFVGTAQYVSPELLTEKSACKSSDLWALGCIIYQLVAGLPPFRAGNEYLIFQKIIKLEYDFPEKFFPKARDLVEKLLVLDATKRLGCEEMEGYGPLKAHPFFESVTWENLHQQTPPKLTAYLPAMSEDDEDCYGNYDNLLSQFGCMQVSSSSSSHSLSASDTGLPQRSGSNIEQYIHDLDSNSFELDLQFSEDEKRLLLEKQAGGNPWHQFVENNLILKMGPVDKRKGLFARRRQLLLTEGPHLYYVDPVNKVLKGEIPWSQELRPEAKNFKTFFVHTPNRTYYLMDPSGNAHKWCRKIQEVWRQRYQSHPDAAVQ
Method: (§1) Microscale Thermophoresis (MST) analysis was performed to quantitatively measure the binding affinity between PDK1 protein and substrate peptides (PDKTide) or the company-developed low-molecular-weight compound (GO88).
(§2) The target proteins were the full-length (PDK1-FL) protein of human-derived PDK1 and the Protein Kinase Domain (PKD) fragment, which were expressed using a baculovirus expression system in insect cell lines (Sf9).
(§3) The purity of the purified proteins was confirmed by SDS-PAGE and Coomassie Brilliant Blue staining.
(§4) The purified protein was labeled with a fluorescent label using the Monolith NT™ RED-NHS Protein Fluorescent Labeling Kit (NanoTemper).
(§5) Specifically, 20 μM of the protein was dissolved in PBS (pH 7.4) buffer, mixed with the fluorescent reagent, and reacted at room temperature under dark conditions for 30 minutes. The mixture was then buffered with MST analysis buffer (50 mM HEPES, 150 mM NaCl, 1 mM DTT, 0.05% Tween-20, pH 7.5). […]
(§6) The reaction samples were injected into an MST-specific capillary (NanoTemper) and analyzed using a Monolith NT.115 device (NanoTemper) under laser intensity conditions. […]
(§7) The measured data were analyzed using MO.Affinity Analysis software (NanoTemper), and the dissociation constant (Kd) was calculated from the binding curve.

[3] = target: T2, PDK1-PKD protein (Protein Kinase Domain fragment) (Homo sapiens, UniProt O15530); assay: Microscale Thermophoresis (MST) binding affinity, PDK1-PKD; conditions: in the presence of ATP; FIG. 48; read-out: Dissociation constant (Kd), PDK1-PKD
T2 construct: the Protein Kinase Domain (PKD) fragment; inferred from Ni-NTA purification; made in house; host or cells: Sf9 insect cells, baculovirus expression system
T2 sequence (O15530 82-342 limits assumed): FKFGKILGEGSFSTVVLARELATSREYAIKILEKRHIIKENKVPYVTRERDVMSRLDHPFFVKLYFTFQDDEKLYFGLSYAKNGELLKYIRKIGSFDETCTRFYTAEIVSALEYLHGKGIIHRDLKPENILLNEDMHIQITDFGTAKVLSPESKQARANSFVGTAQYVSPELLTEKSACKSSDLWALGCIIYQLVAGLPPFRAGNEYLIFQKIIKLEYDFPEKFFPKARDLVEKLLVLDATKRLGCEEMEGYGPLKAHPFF
Method: as §1, §2, §3, §4, §5, §6, §7

[4] = system: Human multiple myeloma, KMS12PE; assay: Relative cell viability, KMS12PE; assay type: cell-based; conditions: KMS-12-PE
Method: After that, 10 μL of CCK-8 was added to each well, and the plate was incubated again at 37° C. in a 5% CO2 incubator for 2 hours.
In other words, when the survival rate of untreated cells (DMSO) is set at 100%, the relative cell survival rate in each group treated with the drug at different concentrations is indicated.

SMILES | Animals with graft pinkening and good blood flow ([1]; day 10 post-transplantation) | Animals with graft pinkening and good blood flow ([1]; day 15 post-transplantation) | pKd ([2]; FIG. 48, read-out: Dissociation constant (Kd), full-length PDK1) | Binding affinity of full-length PDK1 compared to the PKD fragment ([2]; ratio of Kd values) | pKd [3] | viability at 10 µM [4] [%]
Nc1ncccc1C(=O)NCCCCCCCCCCCCN1CCNCC1 [Compound 14, 2-Amino-N-(12-(piperazin-1-yl)dodecyl)nicotinamide] | three out of five | one out of five | ~7.23 | approximately six times stronger binding affinity | ~6.43 | –
Nc1ncccc1C(=O)NCCCCCCCCCCCCF [Compound 57, 2-Amino-N-(12-fluoro-dodecyl)-nicotinamide] | – | – | – | – | – | 41.7
